Experimental data from US20250318525A1, “COMPOSITIONS TO CONTROL THE RELEASE RATES OF CHEMICAL PESTICIDES” (priority 2020, published 2025).
In brackets after ≈: the same amount, converted by molar mass. Where two headings read alike, the source gives them in different places.

Tests used:
[1] = 2,4D release from tablets containing preformed 2,4D complexes (Examples 8, 10, 11); format: physicochemical; conditions: 20% 2,4D tablets in silt, 1 L deionized water, 20° C., 60 rpm, FIGS. 16, 18, 19
Description: The resulting solids were filtered and resuspended in deionized water with stirring for 15 min., then filtered again. The solids were dried to constant mass in a food dehydrator 120° F.
The resulting tablets were immersed in 1 L of deionized water at 20° C. and stirred at 60 rpm for the designated time period.

[2] = physchem; conditions: water
[3] = Benzoic acid release from benzoic acid salt tablets (Example 21); format: physicochemical; conditions: 1 L stirred deionized water, room temperature, FIG. 30
Description: Benzoic acid (BA) is a structural analogue to dicamba with its carboxylic acid in the benzyl position. BA salts were prepared by mixing a stoichiometric amount of metal hydroxide with benzoic acid in deionized water for a minimum of 12 hours. The resulting solids were filtered out of solution and dried in a dehydrator for 12 hours at 120° F. These were then blended with silt in a mortar and pestle and pressed on a desktop tablet press into 6 mm tablets (average tablet weight 0.093 g).
• A. 0.1 g BA, 0.4 g silt • B. 0.1 g Mg(BA)2, 0.4 g silt • C. 0.1 g Ca(BA)2, 0.4 g silt • D. 0.1 g Cu(BA)2, 0.4 g silt • E. 0.1 g Na benzoate, 0.4 g silt
These tablets were immersed in 1 L, stirred (60 rpm), room temperature, deionized water with two tablets per jar. […] A trend can be expected, but not predicted. Based on this, a trend could also be expected when dicamba is paired with metal ions.

[4] = Terrestrial sand bed with 2,4D salts and modeled rain events (Example 24); format: physicochemical; conditions: 7×200 mL flushes of deionized water, FIG. 33
Description: 200 mL of sand was layered in a Buchner funnel with filter paper. 2,4D salts were blended with 5.0 g of sand, and layered atop the 200 mL sand bed and exposed to 7×200 mL flushes of deionized water. 2,4D concentration was measured in the flush water to study how the associated metal impacted how rapidly 2,4D was lost from the surface.
In a terrestrial application, 2,4D lost from the surface would no longer be available to treat the target plant.

[5] = as listed in FIG. 36
[6] = TFM release when paired with bases of increasing solubility; format: physicochemical
Description: If a weak base is paired with the TFM, the solubilization of TFM can be controlled by the basicity and/or the solubility of the weak base.

[7] = Release from dual active tablets, copper-endothall salt and Mg(2,4D)2 or Ca(2,4D)2 (Example 18); format: physicochemical; conditions: tablets with Mg(2,4D)2 or Ca(2,4D)2, 1 L stirred deionized water, both formulations, FIG. 27
Description: Formulations were mixed using a blender and then pressed into 6 mm tablets (average weight of 0.082 g/tablet) using a desktop tablet press. Exact Formulations: • A. 0.5 g Endothall (Cu), 0.5 g 2,4D (Ca), 0.5 g silt • B. 0.5 g Endothall (Cu), 0.5 g 2,4D (Mg), 0.5 g silt
(§1) The resulting tablets were immersed in 1 L of stirred deionized water (60 rpm). […] The copper endothall salt portion of the formulation releases rapidly within 24 hours for both formulations.

[8] = Release from dual active tablets, copper-endothall salt and Mg(triclopyr)2 or Ca(triclopyr)2 (Example 19); format: physicochemical; conditions: tablets with Mg(triclopyr)2 or Ca(triclopyr)2, 1 L stirred deionized water, both formulations, FIG. 28
Description: Formulations were prepared with 33 weight percent each of copper-endothall salt, Mg(triclopyr)2 or Ca(triclopyr)2 salt, and silt. Formulations were mixed using a blender and then pressed into 6 mm tablets (average weight of 0.082 g/tablet) using a desktop tablet press.
• A. 0.5 g Endothall (Cu), 0.5 g triclopyr (Ca), 0.5 g silt • B. 0.5 g Endothall (Cu), 0.5 g triclopyr (Mg), 0.5 g silt
as §1

In the case of `O=C(O)COc1ccc(Cl)cc1Cl` [2,4D, 2,4-dichlorophenoxyacetic acid, reference compound], the “2,4D release rate, comparison” value [1] is reported as “releases significantly faster than the Ca(2,4D)2” and the solubility [2] is reported as 740 µg/mL (≈ 3.35 mM).
With `O=C(O)COc1ccc(Cl)cc1Cl` [Ca(2,4D)2] the “2,4D release rate, comparison” value ([1]; listed as premade calcium complex) was “not significantly slower”.
In the case of `O=C([O-])c1ccccc1.O=C([O-])c1ccccc1.[Ca+2]` [Ca(BA)2], the “benzoic acid release rate, comparison” value [3] is reported as “releases significantly faster than BA”.
With `O=C([O-])COc1ccc(Cl)cc1Cl.O=C([O-])COc1ccc(Cl)cc1Cl.[Cu+2]` [Cu(2,4D)2] the “2,4D release rate, comparison” value [1] was “the slowest of all” and the “tolerance of 2,4D salt on sand bed to water flushes” value [4] was “most tolerant to frequent exposure to rain or watering events”.
With `O=C([O-])COc1ccc(Cl)cc1Cl.O=C([O-])COc1ccc(Cl)cc1Cl.[Fe+2]` [Fe(2,4D)2] the “2,4D release rate, comparison” value [1] was “releases more slowly than 2,4D” and the solubility [5] was 1860 µg/mL.
In the case of `O=C([O-])COc1ccc(Cl)cc1Cl.[Na+]` [Na(2,4D)], the “2,4D release rate, comparison” value [1] is reported as “releases the fastest”.
For `O=[N+]([O-])c1ccc(O)cc1C(F)(F)F` [TFM, 3-trifluoromethyl-4-nitrophenol], the “TFM release rate, order by paired base” value [6] was “Mg(OH)2<Ca(OH)2<<<KOH”.
In the case of `O=C([O-])C1C2CCC(O2)C1C(=O)[O-].[Cu+2]` (stereo not drawn) [copper endothall salt], the “time for release of endothall portion” value [7] is reported as ≤ 24 h and the “time for release of endothall portion” value [8] is reported as ≤ 24 h.
